Measurements reported in patent publication US5968791A, “Plant lysophosphatidic acid acyltransferases” (Calgene, Inc., priority 1995, dated 1999).

The compounds below were run against T1, coconut LPAAT (Cocos nucifera, UniProt Q42670) (assay: Acyl-CoA specificity of coconut LPAAT expressed in E. coli (pCGN5505), membrane fractions). Settings: acceptor 12:0-LPA.
T1 sequence (Q42670 1-308): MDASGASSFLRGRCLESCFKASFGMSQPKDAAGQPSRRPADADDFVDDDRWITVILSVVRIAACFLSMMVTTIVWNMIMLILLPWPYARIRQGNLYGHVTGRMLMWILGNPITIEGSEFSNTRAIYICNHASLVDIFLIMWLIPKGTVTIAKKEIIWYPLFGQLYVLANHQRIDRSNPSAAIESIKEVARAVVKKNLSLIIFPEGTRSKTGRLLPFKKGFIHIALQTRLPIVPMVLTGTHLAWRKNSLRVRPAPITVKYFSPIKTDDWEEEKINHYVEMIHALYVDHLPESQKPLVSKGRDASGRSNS
Type: biochemical
Set-up: the SalI/BamHI fragment of pCGN5504 containing the entire coconut LPAAT encoding region; made in house; host or cells: E. coli BL21(DE3), membrane fractions
Method: The samples are centrifuged at 12,000 g for 15 minutes. The resulting supernatant fractions are centrifuged for two hours at 134,000 g, and the pelleted membranes suspended in 50 mM HEPES, 200 mM NaCl, 20% (w/v) glycerol, 5 mM β-mercaptoethanol, pH 7.5. Membrane fractions are assayed for acyl-CoA substrate specificities with 12:0-LPA and various acyl-CoA species as described in Example 1. Membrane preparations from cultures of E. coli and from immature coconut endosperm are combined with soybean phospholipids and diluted in 1M NaCl in Buffer A to simulate the pre-assay conditions of the solubilized enzyme.

Compound	utilization by E. coli expressed coconut LPAAT
CCCCCCCC(=O)SCCNC(=O)CCNC(=O)[C@H](O)C(C)(C)COP(=O)(O)OP(=O)(O)OC[C@H]1O[C@@H](n2cnc3c(N)ncnc32)[C@H](O)[C@@H]1OP(=O)(O)O [8:0]	some minor activity detectable
CCCCCCCCCC(=O)SCCNC(=O)CCNC(=O)[C@H](O)C(C)(C)COP(=O)(O)OP(=O)(O)OC[C@H]1O[C@@H](n2cnc3c(N)ncnc32)[C@H](O)[C@@H]1OP(=O)(O)O [10:0]	most active
CCCCCCCCCCCC(=O)SCCNC(=O)CCNC(=O)[C@H](O)C(C)(C)COP(=O)(O)OP(=O)(O)OC[C@H]1O[C@@H](n2cnc3c(N)ncnc32)[C@H](O)[C@@H]1OP(=O)(O)O [12:0, lauroyl-CoA]	most active
CCCCCCCCCCCCCC(=O)SCCNC(=O)CCNC(=O)[C@H](O)C(C)(C)COP(=O)(O)OP(=O)(O)OC[C@H]1O[C@@H](n2cnc3c(N)ncnc32)[C@H](O)[C@@H]1OP(=O)(O)O [14:0]	most active
